According to patent US7413853B2, “Modulation of metabolism of steroids and xenobiotics” (The Salk Institute for Biological Studies, priority 2001, dated 2008):
Entries after “also recorded” stand apart in the source; their conditions may differ. Read-outs that look alike come from different tables or passages of the source.

Tests used:
[1] = system: rat CYP3A23 gene cellular promoter
Experimental: The PCR-amplified sequences and target mutagenesis were confirmed by DNA sequencing.
(§1) All compounds were purchased from Sigma.
The above notion would predict: (1) The SXR/PXR response element is essential for the activation of CYP3A genes; and (2) The response elements of SXR and PXR are interchangeable. Therefore, mutagenesis analysis was performed on the promoter of the rat CYP3A23 gene to examine these predictions.

SXR [2] = assay: Activation of SXR in transfection-based assays; set-up: activation of SXR: dose or concentration left out as unconfirmed
Experimental: To characterize its response properties, a large variety of steroids, including intermediate and major products of known steroid biosynthetic pathways were tested.

GR = biological target: T1, GR (Homo sapiens, UniProt P04150); assay: Activity of corticosterone catabolites on GR; assay type: cell-based; settings: reduced or hydroxylated corticosterone derivatives
T1 sequence (P04150 1-777): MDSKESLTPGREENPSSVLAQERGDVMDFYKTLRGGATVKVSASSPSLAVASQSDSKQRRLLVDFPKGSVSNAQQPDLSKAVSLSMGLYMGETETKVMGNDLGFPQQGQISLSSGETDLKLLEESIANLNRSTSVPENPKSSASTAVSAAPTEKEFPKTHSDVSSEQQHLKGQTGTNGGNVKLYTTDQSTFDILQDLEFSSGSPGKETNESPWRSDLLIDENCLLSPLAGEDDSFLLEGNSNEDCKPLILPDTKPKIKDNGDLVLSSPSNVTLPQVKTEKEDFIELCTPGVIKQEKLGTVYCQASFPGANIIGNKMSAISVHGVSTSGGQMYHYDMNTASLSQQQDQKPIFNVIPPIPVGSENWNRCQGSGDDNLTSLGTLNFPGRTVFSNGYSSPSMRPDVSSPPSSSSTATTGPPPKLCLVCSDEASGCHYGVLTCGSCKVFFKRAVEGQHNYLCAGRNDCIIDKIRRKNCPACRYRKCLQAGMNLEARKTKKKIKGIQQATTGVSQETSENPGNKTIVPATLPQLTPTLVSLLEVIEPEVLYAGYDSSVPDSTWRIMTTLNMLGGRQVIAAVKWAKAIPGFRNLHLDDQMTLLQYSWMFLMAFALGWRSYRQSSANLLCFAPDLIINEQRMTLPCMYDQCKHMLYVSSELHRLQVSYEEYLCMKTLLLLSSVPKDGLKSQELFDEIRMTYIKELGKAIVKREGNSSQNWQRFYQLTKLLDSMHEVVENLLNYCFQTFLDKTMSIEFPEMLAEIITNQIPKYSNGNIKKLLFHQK

SXR [3] = biological target: T2, SXR (Homo sapiens, UniProt O75469); assay: Activation of SXR by thiazolidinediones in hepatocyte cultures and transgenic animals
T2 sequence (O75469 1-434): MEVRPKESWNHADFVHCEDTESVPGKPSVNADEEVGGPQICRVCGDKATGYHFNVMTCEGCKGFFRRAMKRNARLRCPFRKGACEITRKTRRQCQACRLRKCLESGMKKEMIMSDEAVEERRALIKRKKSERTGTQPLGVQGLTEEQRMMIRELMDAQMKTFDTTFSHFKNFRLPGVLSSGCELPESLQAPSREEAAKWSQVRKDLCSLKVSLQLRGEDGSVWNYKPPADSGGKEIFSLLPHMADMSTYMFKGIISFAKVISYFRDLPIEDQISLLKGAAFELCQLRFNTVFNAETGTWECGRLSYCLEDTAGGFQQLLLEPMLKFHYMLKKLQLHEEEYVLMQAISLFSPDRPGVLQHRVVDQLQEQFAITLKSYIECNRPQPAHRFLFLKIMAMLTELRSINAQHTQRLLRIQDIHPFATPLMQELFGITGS
Experimental: as §1
The animals were allowed free access to food and water at all times. […] When necessary, mice were treated with a single intraperitoneal injection of DEX (50 mg/kg), PCN (40 mg/kg), or CTZ (50 mg/kg).

CAR = biological target: T3, CAR (Mus musculus, UniProt O35627); assay: tk-UGT1A6/DR-3 luciferase reporter transfected into CV-1 cells with CAR expression vector; assay type: cell-based; settings: tk-UGT1A6/DR-3-Luc
T3 construct: expressed in transfected cells; host or cells: monkey kidney CV-1 cells
T3 sequence (O35627 1-358): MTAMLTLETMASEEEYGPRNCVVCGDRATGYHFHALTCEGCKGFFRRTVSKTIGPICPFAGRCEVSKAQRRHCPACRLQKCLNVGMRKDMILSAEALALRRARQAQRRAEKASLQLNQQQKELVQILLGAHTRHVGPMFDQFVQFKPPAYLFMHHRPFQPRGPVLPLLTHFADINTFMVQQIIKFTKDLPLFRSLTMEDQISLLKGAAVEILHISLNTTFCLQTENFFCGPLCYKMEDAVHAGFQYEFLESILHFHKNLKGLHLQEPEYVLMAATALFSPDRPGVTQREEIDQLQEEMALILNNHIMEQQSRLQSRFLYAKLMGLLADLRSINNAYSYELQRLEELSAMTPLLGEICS
Description: The reporter gene comprises a thymadine kinase (TK) linked to UGT1A6/DR-3 linked to a luciferace (LUC).
In an exemplary assay, a luciferase reporter gene containing the UGT1A6/DR-3 upstream of a minimal thymidine kinase (tk) promoter was constructed and transfected into monkey kidney CV-1 cells together with expression vectors for SXR, PXR, or CAR.
In FIG. 2, the tk-UGT1A6/DR3-Luc construct comprises a UGT inverted or direct repeat and/or a nuclear receptor binding site such that activation of the response element results in transcription of UGT. […] The response element can also comprise an inverse repeat of a suitable half site separated by a 6 nucleotide spacer, or an inverse repeat of a variant thereof, separated by a 6 nucleotide spacer.

PXR [4] = biological target: T4, PXR (Mus musculus, UniProt O54915)
T4 sequence (O54915 1-431): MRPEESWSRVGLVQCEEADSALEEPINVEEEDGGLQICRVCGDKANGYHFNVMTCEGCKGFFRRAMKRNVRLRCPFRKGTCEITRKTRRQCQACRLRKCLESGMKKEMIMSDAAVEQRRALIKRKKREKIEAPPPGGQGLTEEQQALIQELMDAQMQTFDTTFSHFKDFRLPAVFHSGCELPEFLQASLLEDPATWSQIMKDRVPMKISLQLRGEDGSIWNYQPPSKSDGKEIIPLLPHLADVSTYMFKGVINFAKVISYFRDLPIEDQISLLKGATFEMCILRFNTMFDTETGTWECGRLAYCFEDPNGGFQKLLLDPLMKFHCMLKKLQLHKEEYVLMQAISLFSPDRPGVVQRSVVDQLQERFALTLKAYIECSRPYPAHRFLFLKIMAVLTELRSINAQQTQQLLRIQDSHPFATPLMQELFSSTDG

PXR [5] = biological target: T4, PXR; assay: Activation of mouse receptor PXR by the panel of compounds
[6] = clinical trials, 2510 patients; alanine aminotransferase level > three times the upper limit of normal; cited from earlier work
[7] = transfection-based assays, steroids tested

Cc1ccc2cc3c(ccc4ccccc43)c3c2c1CC3 [3MC, 3-methylcholanthrene]
activation of CYP3A23 cellular promoter reporter [1]: fail to activate or behave as poor activators

C[C@]12CCC(=O)C[C@@H]1CC[C@@H]1[C@@H]2[C@@H](O)C[C@]2(C)[C@@H](C(=O)CO)CC[C@@H]12 [5α]
activation of SXR by products of steroid catabolism (SXR [2]): effective SXR activators
activity on GR (GR): slightly active

C[C@]12CCC(=O)C[C@H]1CC[C@@H]1[C@@H]2[C@@H](O)C[C@]2(C)[C@@H](C(=O)CO)CC[C@@H]12 [5β]
activation of SXR by products of steroid catabolism (SXR [2]): effective SXR activators
activity on GR (GR): completely inactive

C[C@]12C[C@H](O)[C@H]3[C@@H](C[C@@H](O)C4=CC(=O)CC[C@@]43C)[C@@H]1CC[C@@H]2C(=O)CO [6β-hydroxy corticosterone]
activation of SXR by products of steroid catabolism (SXR [2]): virtually inactive; also recorded: virtual inactivity
activity on GR (GR): slightly active

CN(CCOc1ccc(CC2SC(=O)NC2=O)cc1)c1ccccn1 (stereo not drawn) [BRL, Rosiglitazone]
activation of SXR by TZDs (SXR [3]; hepatocyte cultures and transgenic animals): fail to activate SXR

CC/C(=C(/CC)c1ccc(O)cc1)c1ccc(O)cc1 [DES, diethylstilbestrol]
activation of SXR by compounds known to induce CYP3A4 (SXR [2]): most potent activators

C[C@]12CC[C@H](O)CC1=CC[C@@H]1[C@@H]2CC[C@]2(C)C(=O)CC[C@@H]12 [DHEA, dehydroepiandrosterone]
SXR activation of DR-3, DR-4 and DR-5 elements (SXR [2]): intermediate group

Clc1cnc(Oc2ccc(Oc3ncc(Cl)cc3Cl)cc2)c(Cl)c1 [TCPOBOP, 1,4-bis[2-(3,5-dichloropyridyloxy)] benzene]
effect on CAR activation of UGT reporter (CAR): potentiated

C[C@]12CCC(=O)C=C1CC[C@@H]1[C@@H]2[C@@H](O)C[C@]2(C=O)[C@@H](C(=O)CO)CC[C@@H]12 [aldosterone]
activation of SXR (SXR [2]): inactive
SXR activation of DR-3, DR-4 and DR-5 elements (SXR [2]; series of transfections): little response

C[C@@]12CCC[C@H]1[C@@H]1CC[C@H]3C[C@@H](O)CC[C@]3(C)[C@H]1CC2 [androstanol]
effect on CAR activation of UGT reporter (CAR): inhibited

C[C@]12C[C@H](O)[C@H]3[C@@H](CCC4=CC(=O)CC[C@@]43C)[C@@H]1CC[C@@H]2C(=O)CO [corticosterone]
activation of SXR by compounds known to induce CYP3A4 (SXR [2]): most potent activators
SXR activation of DR-3, DR-4 and DR-5 elements (SXR [2]; series of transfections): among the best activators
activation of SXR (SXR [2]; [7]): most potent and efficacious activator; also recorded: activated; also recorded: strongest known activator

C[C@]12CCC(=O)C=C1CC[C@@H]1[C@@H]2[C@@H](O)C[C@@]2(C)[C@H]1CC[C@]2(O)C(=O)CO [cortisol]
SXR activation of DR-3, DR-4 and DR-5 elements (SXR [2]; series of transfections): little response

C[C@]12CCC(=O)C=C1CC[C@@H]1[C@@H]2C(=O)C[C@@]2(C)[C@H]1CC[C@]2(O)C(=O)CO [cortisone]
SXR activation of DR-3, DR-4 and DR-5 elements (SXR [2]; series of transfections): intermediate group

O=c1oc2cc(O)ccc2c2oc3cc(O)ccc3c12 [coumestrol]
activation of SXR by compounds known to induce CYP3A4 (SXR [2]): most potent activators

C[C@]12CCC(=O)C[C@@H]1CC[C@@H]1[C@@H]2CC[C@]2(C)[C@@H](O)CC[C@@H]12 [dihydrotestosterone]
SXR activation of DR-3, DR-4 and DR-5 elements (SXR [2]): among the best activators
activation of SXR (SXR [2]): remarkably effective activators

C[C@]12CC[C@@H]3c4ccc(O)cc4CC[C@H]3[C@@H]1CC[C@@H]2O [estradiol, 17β-estradiol]
activation of SXR by compounds known to induce CYP3A4 (SXR [2]): most potent activators
SXR activation of DR-3, DR-4 and DR-5 elements (SXR [2]; series of transfections): among the best activators
activation of SXR (SXR [2]; [7]): remarkably effective activators
induction of CYP3A23 cellular promoter reporter [1]: significant induction
activation of PXR (PXR [4]): similarly activated

CCC1(c2ccccc2)C(=O)NC(=O)NC1=O [phenobarbital]
activation of CYP3A23 cellular promoter reporter [1]: fail to activate or behave as poor activators
induction of CYP3A23 cellular promoter reporter [1]: significant induction

CC(=O)[C@H]1CC[C@H]2[C@@H]3CC=C4C[C@@H](O)CC[C@]4(C)[C@H]3CC[C@]12C [pregnenolone]
SXR activation of DR-3, DR-4 and DR-5 elements (SXR [2]; series of transfections): among the best activators
activation of CYP3A23 cellular promoter reporter [1]: fail to activate or behave as poor activators
induction of CYP3A23 cellular promoter reporter [1]: significant induction

CC(=O)[C@H]1CC[C@H]2[C@@H]3CCC4=CC(=O)CC[C@]4(C)[C@H]3CC[C@]12C [progesterone]
SXR activation of DR-3, DR-4 and DR-5 elements (SXR [2]; series of transfections): among the best activators
activation of SXR (SXR [2]; [7]): activated

C[C@]12CC[C@H]3[C@@H](CCC4=CC(=O)CC[C@@]43C)[C@@H]1CC[C@@H]2O [testosterone]
activation of SXR (SXR [2]): activated
activation of PXR (PXR [5]): similarly activated

Cc1c(C)c2c(c(C)c1O)CCC(C)(COc1ccc(CC3SC(=O)NC3=O)cc1)O2 (stereo not drawn) [troglitazone]
troglitazone-induced hepatotoxicity, share of patients [6]: 1.9%
activation of SXR by TZDs (SXR [3]): activate SXR

estrogen
activation of SXR (SXR [2]; [7]): activated
